# Measurements as given in US20110201497A1, “Composition Comprising A Pesticide and an Alkoxylate of Iso-Heptadecylamine” (BASF SE, priority 2010, published 2011).
# Legend:
# [1] = test system: soybean; test: Greenhouse test, herbicidal activity of glyphosate SL with amine alkoxylate against soybean; assay type: in vivo, soybean (cv. Oxford); conditions: scored vs untreated control
# Protocol: (§1) To carry out greenhouse tests, the winter wheats (cv. Cubus) or soybeans (cv. Oxford) were sown or potted in loamy sand at a sowing depth of 1-2 cm. As soon as the plants had reached a height of 10 to 25 cm (i.e. approx. 10 to 21 days after sowing), the spray mixtures were applied to the plants in a spray cabinet.
# (§2) A concentrated formulation comprising glyphosate isoproylammonium dissolved in water and amine alkoxylate of example 2 were diluted with fully demineralized water and were applied at a water application rate of 375 l/ha ([…]). The temperatures during the experimental period, which lasted for 3 to 4 weeks, were between 18 and 35° C. During this time, the test plants received optimal irrigation, the nutrient supply being effected via the irrigation water.
# (§3) The herbicidal activity was assessed by scoring the treated plants in comparison with the untreated control plants (table 1). The assessment scale goes from 0% to 100% activity. 100% activity means complete dying at least of the aerial plant parts. In contrast, 0% activity means that no differences were observed between treated and untreated plants. The results in table 1 and 2 confirm the increased activity of the active substance by addition of the amine alkoxylate.
# [2] = test system: winter wheat; test: Greenhouse test, herbicidal activity of glyphosate SL with amine alkoxylate against winter wheat; assay type: in vivo, winter wheat (cv. Cubus); conditions: scored vs untreated control
# Protocol: as §1, §2, §3
# [3] = glyphosate 140 g/ha, amine alkoxylate (where present) 300 g/ha, 375 l/ha water
# [4] = glyphosate 280 g/ha, with amine alkoxylate where named
smiles,measurement,setting,value
O=C(O)CNCP(=O)(O)O [glyphosate],Activity [%] after 14 days,[1]; [3],29%
same,Activity [%] after 21 days,[1]; [3],38%
same,Activity [%] after 28 days,[1]; [3],38%
same,Activity [%] after 14 days,[1]; [4],36%
same,Activity [%] after 21 days,[1]; [4],40%
same,Activity [%] after 28 days,[1]; [4],40%
same,Activity [%] after 14 days,[2]; [3],64%
same,Activity [%] after 21 days,[2]; [3],73%
same,Activity [%] after 28 days,[2]; [3],73%
same,Activity [%] after 14 days,[2]; [4],71%
same,Activity [%] after 21 days,[2]; [4],81%
same,Activity [%] after 28 days,[2]; [4],81%
